Test system: lymphoma
Test: Lymphoma incidence in mice (National Institute of Health experiment)
Type: in vivo
Conditions: reduced from 10-20%
Description: This was observed after treating mice right after birth, if humans are treated later in life it is possible that only 10 or 5 years are added and probably more for DNA repair deficient diseases like ataxia telangiectasia (ATM) which is still very substantial.

## COc1ccc2cc(-c3nc4ccc(C)cn4c3NCc3ccco3)c(=O)[nH]c2c1 [YEL002]
  spontaneous frequency of lymphoma: 0%

From US20260007651A1, “Effect of YEL002 on Conditions and Diseases” (RadMit, Inc., priority 2022, published 2026)
